In patent US20150273070A1, “MODIFIED RELEASE OF 4-METHYL-3-[[4-(3-PYRIDINYL)-2-PYRIMIDINYL]AMINO]-N-[5-(4-METHYL-1H-IMIDAZOL-1-YL)-3-(TRIFLOUOROMETHYL)PHENYL] BENZAMIDE SOLUBILIZED USING ORGANIC ACIDS” (Novartis AG, priority 2011, published 2015):

How the values were obtained:
[1] = Solubility of nilotinib in lactic acid; format: physicochemical
Source text: Nilotinib solubilized modified release solid dosage forms containing lactic acid were developed. […] Surfactants and/or polymers were used to prevent the precipitation after solubilized nilotinib is released from the formulation matrix. Due to the liquid nature of lactic acid this formulation matrix is in the liquid form. However, by incorporation of additional suitable excipients, the formulation could be solidified at room temperature. This improved the physical and chemical stability of nilotinib in the formulation. In addition, the solid state also provided the opportunity to modulate the drug release rate.

[2] = Solubility of nilotinib in ethanol with citric acid; format: physicochemical

Compound: Cc1cn(-c2cc(NC(=O)c3ccc(C)c(Nc4nccc(-c5cccnc5)n4)c3)cc(C(F)(F)F)c2)cn1 [nilotinib, 4-Methyl-3-[[4-(3-pyrldinyl)-2-pyrimidinyl]amino]-N-[5-(4-methyl-1H-imidazol-1-yl)-3-(trifluoromethyl)phenyl] benzamide]
- solubility at intestinal pH ([1]; in presence of surfactants and/or polymers): could maintain its solubility at intestinal pH
- solubility ([1]; lactic acid, organic solvent or mixture, at 65° C.): > 600 mg/mL
- solubility of the drug in ethanol [2]: remarkably high solubility
